Molecules are shown by their SMILES.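 1) Cells in 96-well plates. 2) Compound, 48 h, 5 concentrations. 3) Linear interpolation between surrounding doses. 4) Unreached endpoint = highest concentration. At the GI50, growth is halved.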 Active and inactive are the calls of the source. Rule as the data show it: active = GI50 up to about 1.1 µM and inactive = higher. A value given as a limit tells only on which side of the number the result lay.

Among the test systems are U-251; SR; SF-539; CAKI-1; MDA-MB-435; KM12; DU-145; HCT-116; Malme-3M; OVCAR-3; UACC-257; M14; TK-10; SW-620; CCRF-CEM; SNB-19; NCI-H460; 786-0; NCI-H226; A549.
Assay in all cases: inhibition of tumour cell growth, NCI panel, 48 h

As to `BrCCC[P+](c1ccccc1)(c1ccccc1)c1ccccc1`, the GI50 is 6.32 µM (inactive) with U-251; 3.83 µM (inactive) in the assay with SR; 8.47 µM (inactive) in the assay with SF-539; > 100 µM (inactive) in the assay with CAKI-1; 4.61 µM (inactive) in the assay with MDA-MB-435; 5.06 µM (inactive) in the assay with KM12. Further, the GI50 in the assay on DU-145 was 32.7 µM (inactive); in the assay with HCT-116 it was 1.64 µM (inactive); in the assay with Malme-3M, 16.2 µM (inactive); in the assay on OVCAR-3 it was 3.44 µM (inactive); in the assay with UACC-257, 2.71 µM (inactive); in the assay on M14 it was 11.8 µM (inactive). The GI50 in the assay on TK-10 is 80.9 µM (inactive); in the assay on SW-620, 25.5 µM (inactive); in the assay on CCRF-CEM, > 30.5 µM (inactive); in the assay with SNB-19 it was 16.6 µM (inactive); in the assay on NCI-H460, 15.2 µM (inactive); with 786-0, 13.5 µM (inactive). For the same compound, the GI50 was > 78.7 µM (inactive) with NCI-H226 and 25.6 µM (inactive) with A549.
For `CN(CCCCN1CCCC1)CCCN(C)C(=O)Cc1ccc(Cl)c(Cl)c1`, the GI50 with U-251 is 16 µM (inactive); in the assay with SR, 3.3 µM (inactive); in the assay on SF-539, 7.38 µM (inactive); in the assay on CAKI-1, 21.1 µM (inactive); in the assay with MDA-MB-435 it was 2.56 µM (inactive); in the assay on KM12, 12.5 µM (inactive). Besides, the GI50 in the assay on DU-145 was 37.1 µM (inactive); in the assay on HCT-116, 13.2 µM (inactive); with Malme-3M it was 18.8 µM (inactive); in the assay on OVCAR-3, 19.1 µM (inactive); in the assay with UACC-257 it was 3.29 µM (inactive); with M14, 17 µM (inactive). Moreover, the GI50 with TK-10 is 17.7 µM (inactive); in the assay on SW-620, 17.7 µM (inactive); with CCRF-CEM, 4.74 µM (inactive); in the assay on SNB-19, 23.7 µM (inactive); in the assay on NCI-H460, 16.3 µM (inactive); with 786-0 it was 12.9 µM (inactive). For the same compound, the GI50 was 26.9 µM (inactive) in the assay on NCI-H226 and 18.7 µM (inactive) with A549.
Take `CN(C)CCCN=C(N)N`: the GI50 with U-251, in the assay on SR, in the assay on SF-539, in the assay with CAKI-1, in the assay on MDA-MB-435 and in the assay with KM12 was > 100 µM (inactive) each time. Also, the GI50 in the assay with DU-145, in the assay with HCT-116, with Malme-3M, in the assay with OVCAR-3, with UACC-257 and in the assay with M14 was > 100 µM (inactive) throughout. Besides, the GI50 in the assay on TK-10, in the assay with SW-620, in the assay on CCRF-CEM, in the assay on SNB-19, in the assay with NCI-H460 and in the assay with 786-0 was > 100 µM (inactive) in each case. Further, the GI50 in the assay on NCI-H226 and in the assay with A549 was > 100 µM (inactive) throughout.
On to `COc1cc(O)c2c(=O)c3ccccc3n(C)c2c1`, for which the GI50 is 29.4 µM (inactive) with U-251; 7.26 µM (inactive) in the assay with SR; 28.4 µM (inactive) in the assay with SF-539; > 100 µM (inactive) in the assay on CAKI-1; > 100 µM (inactive) in the assay with MDA-MB-435; > 100 µM (inactive) with KM12. Further, the GI50 in the assay on DU-145 is > 100 µM (inactive); with HCT-116, 10.2 µM (inactive); in the assay on Malme-3M, > 100 µM (inactive); in the assay on OVCAR-3, > 100 µM (inactive); with UACC-257 it was > 100 µM (inactive); in the assay on M14, > 100 µM (inactive). Further, the GI50 was 20.1 µM (inactive) in the assay on TK-10; 63.8 µM (inactive) in the assay on SW-620; 24 µM (inactive) with CCRF-CEM; 0.253 µM (active) in the assay with SNB-19; 4.48 µM (inactive) in the assay on NCI-H460; 21.5 µM (inactive) in the assay with 786-0. Besides, the GI50 in the assay with NCI-H226 and in the assay with A549 was > 100 µM (inactive) each time.
For `CCCc1cn2c(/C=N/NC(=N)N)c(-c3cccc([N+](=O)[O-])c3)nc2s1`, the GI50 in the assay on U-251 is 1.86 µM (inactive); with SR it was 2.09 µM (inactive); with SF-539, 1.69 µM (inactive); in the assay on CAKI-1 it was 2.01 µM (inactive); in the assay with MDA-MB-435 it was 1.76 µM (inactive); in the assay with KM12 it was 1.76 µM (inactive). Moreover, the GI50 with DU-145 is 1.74 µM (inactive); in the assay on HCT-116, 2.27 µM (inactive); in the assay with Malme-3M, 1.3 µM (inactive); in the assay with OVCAR-3 it was 1.8 µM (inactive); in the assay with UACC-257 it was 1.71 µM (inactive); with M14 it was 2.02 µM (inactive). The GI50 in the assay with TK-10 was 0.0405 µM (active); with SW-620 it was 3.08 µM (inactive); in the assay with CCRF-CEM, 0.746 µM (active); in the assay with SNB-19, 2.07 µM (inactive); with NCI-H460, 2.22 µM (inactive); in the assay with 786-0, 1.95 µM (inactive). The results for the GI50 in the assay with NCI-H226 and in the assay on A549 were 1.66 µM (inactive) and 1.73 µM (inactive), respectively.
Take `NS(=O)(=O)c1ccc(NCc2cnc3ccccc3n2)cc1`: the GI50 with U-251, in the assay with SR, in the assay on SF-539, with CAKI-1, in the assay with MDA-MB-435 and in the assay with KM12 was > 100 µM (inactive) in each case. Besides, the GI50 with DU-145, with HCT-116, in the assay with Malme-3M, in the assay on OVCAR-3, in the assay with UACC-257 and in the assay on M14 was > 100 µM (inactive) throughout. For the same compound, the GI50 in the assay on TK-10, with SW-620, with CCRF-CEM, in the assay on SNB-19, in the assay with NCI-H460 and with 786-0 was > 100 µM (inactive) each time. In addition, the GI50 in the assay with NCI-H226 and in the assay on A549 was > 100 µM (inactive) throughout.
As to `CC(SCc1ccccc1)C(=O)O` (stereo not given), the GI50 in the assay on U-251, with SR, in the assay on SF-539, in the assay with CAKI-1, in the assay with MDA-MB-435 and with KM12 was > 100 µM (inactive) in each case. The GI50 in the assay on DU-145, in the assay with HCT-116, in the assay with Malme-3M, in the assay on OVCAR-3, in the assay on UACC-257 and with M14 was > 100 µM (inactive) in each case. Besides, the GI50 in the assay on TK-10, in the assay with SW-620, with CCRF-CEM, in the assay on SNB-19, in the assay with NCI-H460 and in the assay with 786-0 was > 100 µM (inactive) each time. Also, the GI50 with NCI-H226 and with A549 was > 100 µM (inactive) throughout.
Turning to `COc1ccc(S(=O)(=O)NC(CCC(=O)NC(N)=O)C(=O)NC(N)=O)cc1` (stereo not given), the GI50 in the assay with U-251, in the assay on SR, in the assay with SF-539, in the assay with CAKI-1, in the assay with MDA-MB-435 and in the assay on KM12 was > 100 µM (inactive) in each case. Further, the GI50 with DU-145, in the assay with HCT-116, with Malme-3M, in the assay on OVCAR-3, with UACC-257 and in the assay on M14 was > 100 µM (inactive) in each case. The GI50 in the assay with TK-10, with SW-620, in the assay with CCRF-CEM, with SNB-19, with NCI-H460 and in the assay with 786-0 was > 100 µM (inactive) each time. For the same compound, the GI50 in the assay on NCI-H226 and in the assay with A549 was > 100 µM (inactive) in each case.
As to `N#C/C(=C(\O)C(=O)O)c1ccc(-c2cccc3ccccc23)cc1`, the GI50 in the assay with U-251 is > 100 µM (inactive); with SR it was 3.11 µM (inactive); in the assay with SF-539, > 100 µM (inactive); in the assay on CAKI-1 it was > 100 µM (inactive); in the assay with MDA-MB-435, > 100 µM (inactive); with KM12, > 100 µM (inactive). In addition, the GI50 with DU-145, in the assay on HCT-116, in the assay on Malme-3M, in the assay on OVCAR-3, in the assay with UACC-257 and in the assay on M14 was > 100 µM (inactive) in each case. The GI50 in the assay with TK-10 was > 100 µM (inactive); in the assay on SW-620, > 100 µM (inactive); in the assay with CCRF-CEM, 14.1 µM (inactive); in the assay on SNB-19, > 100 µM (inactive); in the assay with NCI-H460, > 100 µM (inactive); in the assay on 786-0, > 100 µM (inactive). The GI50 in the assay with NCI-H226 and with A549 was > 100 µM (inactive) each time.
For the compound `C=C[C@]1(C)CC(=O)C(C(C)C=O)[C@]12C(=O)Oc1cccc(C)c1C2=O` (stereo not given in full), the GI50 in the assay with U-251 was 14.6 µM (inactive); in the assay on SR it was 27 µM (inactive); in the assay with SF-539, 16.2 µM (inactive); in the assay with CAKI-1, 14.4 µM (inactive); in the assay with MDA-MB-435, 15.2 µM (inactive); in the assay on KM12, 14.7 µM (inactive). Also, the GI50 in the assay with DU-145 is 16.8 µM (inactive); in the assay with HCT-116 it was 7.85 µM (inactive); in the assay on Malme-3M, 18 µM (inactive); with OVCAR-3, 15.9 µM (inactive); with UACC-257 it was 17.6 µM (inactive); in the assay with M14, 16.3 µM (inactive). Besides, the GI50 in the assay with TK-10 is 14.8 µM (inactive); in the assay with SW-620 it was 11.8 µM (inactive); in the assay on CCRF-CEM, 2.26 µM (inactive); with SNB-19, 12.2 µM (inactive); with NCI-H460, 16.6 µM (inactive); in the assay with 786-0, 16.4 µM (inactive). The values for the GI50 in the assay on NCI-H226 and with A549 were 15.3 µM (inactive) and 18 µM (inactive), respectively.
